Among the data in ChEMBL document CHEMBL1155756, “Pacovatinins A-C, new labdane diterpenoids from the seeds of Renealmia exaltata” (J Nat Prod, 2001) are IC50 values, retold here.

What is called IC50 is the concentration needed to halve the response being measured. Read a low IC50 as greater potency in that assay.

One assay deals with KB. The assay can be described thus: Cytotoxicity against human KB cells. In kind it is functional, cell-based.
The test system of a further assay is L1210. The assay can be described thus: Cytotoxicity against mouse L1210 cells. Format: functional, cell-based.

SMILES strings stand for the structures. ≈ marks a conversion by molar mass, not a printed value.

Turning to `C=C1[C@@H](O)C[C@H]2C(C)(C)[C@@H](O)CC[C@]2(C)[C@H]1C/C=C1\CCOC1=O` [PACOVATININ B], the 50% inhibitory concentration (IC50) in the assay on KB and with L1210 was above 10 µg/mL each time.

In the case of `C=C1[C@@H](O)C[C@H]2C(C)(C)C(=O)CC[C@]2(C)[C@H]1C/C=C1/CCOC1=O` [PACOVATININ C], the IC50 with KB was found to be 7.3 µg/mL (≈ 22 µM); in the assay with L1210, 4.7 µg/mL (≈ 14.1 µM).
